Values after ≈ are worked out from the molar mass of the structure shown.
Experiments:
Assay in all cases: ≥ marks a high value that may be exact or a test limit, other limits are often not marked, values filed in µg/mL are converted to µM
[1] = tested on: Staphylococcus epidermidis AB208187
[2] = tested on: Bacillus subtilis AB91021
[3] = tested on: Staphylococcus aureus P1389
[4] = tested on: Staphylococcus aureus P1381
[5] = tested on: Staphylococcus aureus ATCC 25923
Escherichia coli AB94012 = tested on: Escherichia coli AB94012
[6] = tested on: Staphylococcus aureus AB208193
[7] = tested on: Staphylococcus aureus P1374
[8] = tested on: Escherichia coli ATCC 25922
[9] = tested on: Micrococcus luteus AB93113
[10] = tested on: Bacillus thuringiensis AB92037
[11] = tested on: Staphylococcus epidermidis AB208188
[12] = tested on: Staphylococcus aureus ATCC 6538
[13] = tested on: Pseudomonas aeruginosa ATCC 9027
[14] = tested on: Staphylococcus aureus ATCC 43300
[15] = tested on: Staphylococcus aureus ATCC 29213
[16] = tested on: Bacillus cereus ATCC 11778
[17] = tested on: Listeria monocytogenes ATCC BAA-751
[18] = tested on: Salmonella enterica subsp. enterica serovar Typhimurium ATCC 14028
[19] = tested on: Staphylococcus aureus ATCC 33592
[20] = tested on: Micrococcus luteus MTCC 166
[21] = tested on: Bacillus subtilis MTCC 121
Escherichia coli ML-35p = tested on: Escherichia coli ML-35p
[22] = tested on: Salmonella enterica subsp. enterica serovar Typhi Vi+
[23] = tested on: Klebsiella pneumoniae ATCC 700603
[24] = tested on: Pseudomonas aeruginosa ATCC 27853
[25] = tested on: Escherichia coli ATCC 35218
[26] = tested on: Escherichia coli ATCC 11775
[27] = tested on: Klebsiella pneumoniae ATCC 13883
[28] = tested on: Salmonella enterica subsp. enterica serovar Abony NCTC 6017
[29] = tested on: Staphylococcus saprophyticus MTCC 6155
[30] = tested on: Staphylococcus epidermidis MTCC 435
[31] = tested on: Pseudomonas aeruginosa NBRC 13275
[32] = tested on: Staphylococcus aureus NBRC 13276
[33] = tested on: Escherichia coli DH5alpha
[34] = tested on: Staphylococcus aureus RN4220
[35] = tested on: Pseudomonas fluorescens NCIMB 9046
[36] = tested on: Staphylococcus aureus NCTC 8325-4
[37] = tested on: Staphylococcus aureus SA113
[38] = tested on: Cronobacter sakazakii DPC 6440
Escherichia coli O157:H7 = tested on: Escherichia coli O157:H7
[39] = tested on: Cronobacter muytjensii ATCC 51329
[40] = tested on: Cronobacter sakazakii DSM 4485
Escherichia coli O111 = tested on: Escherichia coli O111
[41] = tested on: Escherichia coli NCIMB 11843
[42] = tested on: Staphylococcus aureus NCTC 7428
[43] = tested on: Salmonella enterica subsp. enterica serovar Typhimurium LT2
[44] = tested on: Cronobacter sakazakii ATCC BAA-894
[45] = tested on: Salmonella enterica subsp. enterica serovar Typhimurium DT104
[46] = tested on: Staphylococcus aureus RF122
[47] = tested on: Staphylococcus aureus Newman
[48] = tested on: Klebsiella pneumoniae NCIMB 13218

Work on CC[C@H](C)[C@H](NC(=O)[C@H](CCCCN)NC(=O)[C@@H](NC(=O)[C@H](C)NC(=O)[C@H](CC(C)C)NC(=O)[C@H](CCCCN)NC(=O)[C@H](Cc1ccccc1)NC(=O)[C@H](CC(C)C)NC(=O)[C@H](C)NC(=O)CNC(=O)[C@H](Cc1ccccc1)NC(=O)[C@@H](N)Cc1ccccc1)[C@@H](C)O)C(=O)N[C@H](C(=O)N1CCC[C@H]1C(=O)N[C@@H](CO)C(=O)N[C@@H](CC(C)C)C(=O)N[C@@H](Cc1ccccc1)C(=O)N[C@@H](CCCN=C(N)N)C(=O)O)[C@@H](C)CC [FFGALFKLATKIIPSLFR] yielded an MIC [1] of 1.5 µM (≈ 3.1 µg/mL), an MIC [2] of 3 µM (≈ 6.21 µg/mL) and an MIC [3] of 1.5 µM (≈ 3.1 µg/mL). It also gave an MIC [4] of 3 µM (≈ 6.21 µg/mL), an MIC [5] of 3 µM (≈ 6.21 µg/mL) and an MIC (Escherichia coli AB94012) of at least 48.3 µM. The MIC [6] was 3 µM (≈ 6.21 µg/mL), the MIC [7] was 3 µM (≈ 6.21 µg/mL) and the MIC [8] was 12.1 µM (≈ 25 µg/mL). The MIC [9] was at least 48.3 µM, the MIC [10] was 1.5 µM (≈ 3.1 µg/mL) and the MIC [11] was 1.5 µM (≈ 3.1 µg/mL). For the same compound, the MIC [12] was 1.5 µM (≈ 3.1 µg/mL) and the MIC [13] was 12.1 µM (≈ 25 µg/mL).
With CC[C@H](C)[C@H](NC(=O)CNC(=O)[C@H](CCCCN)NC(=O)[C@@H](NC(=O)[C@H](CC(C)C)NC(=O)[C@H](CCCCN)NC(=O)CNC(=O)[C@H](CC(C)C)NC(=O)CNC(=O)[C@H](CO)NC(=O)[C@H](CCCCN)NC(=O)[C@H](Cc1ccccc1)NC(=O)[C@@H](NC(=O)[C@H](CCCN=C(N)N)NC(=O)[C@H](CCCCN)NC(=O)[C@H](CC(C)C)NC(=O)CN)[C@@H](C)CC)C(C)C)C(=O)N[C@@H](CO)C(=O)N[C@@H](C)C(=O)N[C@@H](Cc1cnc[nH]1)C(=O)N[C@H](C(=O)N[C@@H](C)C(=O)N[C@@H](CO)C(=O)O)C(C)C [GLKRIFKSGLGKLVKGISAHVAS] the MIC [14] was 250 µM (≈ 592 µg/mL), the MIC [15] was 250 µM (≈ 592 µg/mL) and the MIC [5] was 62.5 µM (≈ 148 µg/mL). For the same compound, the MIC [8] was 62.5 µM (≈ 148 µg/mL), the MIC [16] was at least 125 µM and the MIC [17] was at least 62.5 µM. The MIC [18] was 125 µM (≈ 296 µg/mL) and the MIC [13] was 250 µM (≈ 592 µg/mL).
Work on CC[C@H](C)[C@H](N)C(=O)N[C@@H](CC(C)C)C(=O)N1CCC[C@H]1C(=O)N[C@@H](Cc1c[nH]c2ccccc12)C(=O)N[C@@H](CCCCN)C(=O)N[C@@H](Cc1c[nH]c2ccccc12)C(=O)N[C@@H](CCCCN)C(=O)N[C@@H](Cc1c[nH]c2ccccc12)C(=O)N[C@H](C(=O)N1CCC[C@H]1C(=O)N[C@@H](Cc1c[nH]c2ccccc12)C(=O)N[C@@H](CCCN=C(N)N)C(=O)N[C@@H](CCCN=C(N)N)C(N)=O)[C@@H](C)O [ILPWKWKWTPWRR] yielded an MIC [19] of 3 µM (≈ 5.56 µg/mL), an MIC [20] of 2.5 µM (≈ 4.63 µg/mL) and an MIC [21] of 3 µM (≈ 5.56 µg/mL). It also gave an MIC (Escherichia coli ML-35p) of 4 µM (≈ 7.41 µg/mL), an MIC [22] of 2 µM (≈ 3.7 µg/mL) and an MIC [23] of 5 µM (≈ 9.26 µg/mL). For the same compound, the MIC [24] was 4 µM (≈ 7.41 µg/mL), the MIC [25] was 5 µM (≈ 9.26 µg/mL) and the MIC [26] was 4 µM (≈ 7.41 µg/mL). The MIC [27] was 3 µM (≈ 5.56 µg/mL), the MIC [28] was 7 µM (≈ 13 µg/mL) and the MIC [29] was 3 µM (≈ 5.56 µg/mL). For the same compound, the MIC [18] was 7 µM (≈ 13 µg/mL) and the MIC [30] was 4 µM (≈ 7.41 µg/mL).
In the case of CC(=O)N[C@@H](CCCCN)C(=O)N[C@@H](Cc1ccccc1)C(=O)N[C@@H](CC(C)C)C(=O)N[C@@H](Cc1cnc[nH]1)C(=O)N[C@@H](CO)C(=O)N[C@@H](C)C(=O)N[C@@H](CCCCN)C(=O)N[C@@H](CCCCN)C(=O)N[C@@H](Cc1ccccc1)C(N)=O [KFLHSAKKF], the MIC [31] is reported as at least 200 µM, the MIC [32] is reported as at least 400 µM and the MIC [33] is reported as at least 200 µM.
CC(C)C[C@H](NC(=O)[C@H](CC(C)C)NC(=O)[C@H](CC(N)=O)NC(=O)[C@H](CCC(=O)O)NC(=O)[C@H](CC(N)=O)NC(=O)[C@H](CC(C)C)NC(=O)[C@@H](N)C(C)C)C(=O)N[C@@H](CCCN=C(N)N)C(=O)O [VLNENLLR] gave an MIC [34] of at least 1250 µM, an MIC [35] of at least 1250 µM and an MIC [36] of at least 1250 µM. It also gave an MIC [37] of at least 1250 µM, an MIC [38] of at least 1250 µM and an MIC (Escherichia coli O157:H7) of at least 2060 µM. The MIC [39] was at least 625 µM, the MIC [40] was at least 625 µM and the MIC (Escherichia coli O111) was at least 2060 µM. For the same compound, the MIC [41] was at least 1250 µM, the MIC [42] was at least 2060 µM and the MIC [24] was 64 µM (≈ 62.1 µg/mL). For the same compound, the MIC [43] was at least 1250 µM, the MIC [44] was at least 625 µM and the MIC [45] was at least 2060 µM. It also gave an MIC [46] of at least 1250 µM, an MIC [47] of at least 1250 µM and an MIC [48] of at least 1250 µM.

Reference: DBAASP
